Source: ChEMBL document CHEMBL5154637, “Peptidomimetic α-Acyloxymethylketone Warheads with Six-Membered Lactam P1 Glutamine Mimic: SARS-CoV-2 3CL Protease Inhibition, Coronavirus Antiviral Activity, and in Vitro Biological Stability” (J Med Chem, 2022)

Columns and labels:
Cathepsin S [1] = biological target: T1, Cathepsin S (Homo sapiens, UniProt P25774); assay: Inhibition of human cathepsin S at 1 uM incubated for 30 mins by fluorometric analysis
Target sequence in this assay (P25774 115-331 limits assumed): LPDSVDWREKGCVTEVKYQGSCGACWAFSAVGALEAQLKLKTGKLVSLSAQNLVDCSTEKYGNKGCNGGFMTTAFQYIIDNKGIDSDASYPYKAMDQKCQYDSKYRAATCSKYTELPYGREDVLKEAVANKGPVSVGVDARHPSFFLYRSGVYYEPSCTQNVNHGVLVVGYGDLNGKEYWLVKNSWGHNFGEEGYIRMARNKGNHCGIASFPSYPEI

Cathepsin B [2] = biological target: T2, Cathepsin B (Homo sapiens, UniProt P07858); assay: Inhibition of human cathepsin B at 1 uM incubated for 30 mins by fluorometric analysis
[3] = biological target: Replicase polyprotein 1ab (Severe acute respiratory syndrome coronavirus 2, UniProt P0DTD1); assay: Inhibition of SARS-CoV-2 3CL protease incubated for 30 mins by FRET assay
SARS-CoV-2 = assay: microbe, parasite or virus in culture; settings: Severe acute respiratory syndrome coronavirus 2, Vero C1008, 48 h
[4] = Dissociation constant, pKa of the compound; format: physicochemical
[5] = Metabolic stability in human plasma measured at 2 hrs by LC-MS analysis; format: ADME, cell-free; settings: read-out: Stability
[6] = Metabolic stability in human plasma assessed as half life measured upto 2 hrs by LC-MS analysis; format: ADME, cell-free
Human coronavirus 229E = assay: Antiviral activity against Human coronavirus 229E infected in human MRC5 cells assessed as reduction in virus-induced cytopathic effect incubated for 3 days by Celltiter-Glo assay; format: functional, organism-based; settings: MRC5, 72 h
in vitro [7] = settings: human, A549 cells
[8] = Antiviral activity against Human coronavirus OC43 infected in human Huh-7 cells assessed as reduction in virus-induced cytopathic effect incubated for 7 days by Celltiter-Glo assay; format: functional, cell-based; settings: Betacoronavirus 1, OC43, Huh-7, 168 h
[9] = Stability in CD-1 mouse plasma assessed as half life at 2 uM measured upto 120 mins by LC-MS/MS analysis; format: ADME, cell-free
[10] = Cytotoxicity against human Huh-7 cells assessed as reduction in cell viability incubated for 24 hrs by Celltiter-glo luminescent cell viability assay; format: toxicity, cell-based
[11] = Metabolic stability in CD-1 mouse Hepatocytes assessed as half life at 3 uM measured upto 90 mins by LC-MS/MS analysis; format: ADME, cell-based, Hepatocyte; settings: for half-life at 3 µM: CD-1, mouse
[12] = Apparent permeability from basolateral to apical side in human Caco-2 cells at 2 uM with pH 7.4 incubated for 2 hrs by LC-MS analysis; format: ADME, cell-based; settings: for permeability: caco-2, pH 7.4, 2 h, 2 µM; for Papp B→A at 2 h, 2 µM: Caco-2, pH 7.4
in vitro [13] = settings: chlorocebus sabaeus, Vero E6 cells
[14] = Metabolic stability in CD-1 mouse liver microsomes assessed as half life at 1 uM measured upto 60 mins in absence of NADPH by LC-MS/MS analysis; format: ADME, Microsome
[15] = Microsomal stability in CD-1 mouse liver microsomes assessed as half life at 1 uM measured upto 60 mins in presence of NADPH by LC-MS/MS analysis; format: ADME, Microsome; settings: for Stability: mouse, microsomes, 1 h, 1 µM; for half-life at 1 µM: CD-1, mouse, liver microsomes
[16] = Cytotoxicity against human MRC5 cells assessed as reduction in cell viability incubated for 24 hrs by Celltiter-glo luminescent cell viability assay; format: toxicity, cell-based
[17] = Lipophilicity, log D of the compound at phosphate buffer pH 7.4 by shake flask method based LC-MS/MS analysis; format: physicochemical
Cathepsin S [18] = biological target: T1, Cathepsin S; assay: Inhibition of human cathepsin S incubated for 30 mins by fluorometric analysis
Target sequence in this assay (P25774 whole entry): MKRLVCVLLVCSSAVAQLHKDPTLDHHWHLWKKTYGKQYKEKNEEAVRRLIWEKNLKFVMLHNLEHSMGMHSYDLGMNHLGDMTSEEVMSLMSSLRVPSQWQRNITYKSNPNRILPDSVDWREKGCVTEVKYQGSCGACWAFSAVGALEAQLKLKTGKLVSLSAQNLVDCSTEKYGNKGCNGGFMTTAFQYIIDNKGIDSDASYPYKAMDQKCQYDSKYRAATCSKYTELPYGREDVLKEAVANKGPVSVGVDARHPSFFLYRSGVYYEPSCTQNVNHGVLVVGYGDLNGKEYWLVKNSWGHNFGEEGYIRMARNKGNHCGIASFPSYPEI

Cathepsin B [19] = biological target: T2, Cathepsin B; assay: Inhibition of human cathepsin B incubated for 30 mins by fluorometric analysis
[20] = Selectivity index, ratio of CC50 for cytotoxicity against human A549 cells assessed as reduction in cell viability to EC50 for antiviral activity against SARS-CoV-2 3CL protease; format: toxicity, cell-based; settings: read-out: Ratio CC50/EC50
[21] = Selectivity index, ratio of CC50 for cytotoxicity against African green monkey VeroE6 cells assessed as reduction in cell viability to EC50 for antiviral activity against SARS-CoV-2 3CL protease; format: toxicity, cell-based; settings: read-out: Ratio CC50/EC50
[22] = Stability of compound in glutathione at pH 7.4 after 24 hrs by LC-MS analysis; format: physicochemical; settings: read-out: Stability

Structure (SMILES)	inhibition (Cathepsin S [1])	inhibition (Cathepsin B [2])	IC50 [3]	EC50 (SARS-CoV-2)	pKa [4]	remaining at 2 h [5]	EC50 (Human coronavirus 229E)	CC50 at 24 h (in vitro [7])	EC50 [8]	CC50 at 24 h [10]	CC50 at 24 h (in vitro [13])	CC50 at 24 h [16]	other results
O=C[C@H](C[C@@H]1CCNC1=O)NC(=O)[C@H](CC1CCCCC1)NC(=O)OCc1cccc(Cl)c1	99.3%	72.5%											
COc1cccc2[nH]c(C(=O)N[C@@H](CC(C)C)C(=O)N[C@@H](C[C@@H]3CCCNC3=O)C(=O)COC(=O)c3ccncc3)cc12			32.9 nM	> 10000 nM	1.77								
COc1cccc2[nH]c(C(=O)N[C@@H](CC(C)C)C(=O)N[C@@H](C[C@@H]3CCCNC3=O)C(=O)COC(=O)c3cccnc3)cc12				> 10000 nM	2	2%							half-life [6]: < 15 min
COc1cccc2[nH]c(C(=O)N[C@@H](CC(C)C)C(=O)N[C@@H](C[C@@H]3CCCNC3=O)C(=O)COC(=O)c3c(Cl)cccc3Cl)cc12					1.26		21 nM	> 200000 nM	35 nM	> 100000 nM	> 200000 nM	> 100000 nM	half-life at 2 µM [9]: 170 min; half-life at 3 µM [11]: 2.3 min; permeability [12]: Impermeable; half-life at 1 µM ([14]; CD-1, mouse, liver microsomes): < 180 min; Stability [15]: Unstable; logD [17]: > 5.07
COc1cccc2[nH]c(C(=O)N[C@@H](CC(C)C)C(=O)N[C@@H](C[C@@H]3CCCNC3=O)C(=O)CO)cc12	60.8%	26.5%	19.5 nM	10100 nM				> 200000 nM			> 200000 nM		
COc1cccc2[nH]c(C(=O)N[C@@H](CC(C)C)C(=O)N[C@@H](C[C@@H]3CCCNC3=O)C(=O)COC(=O)C3(C(F)(F)F)CCCCC3)cc12	84.2%	38.6%		600 nM	3.4	97%	196 nM	> 200000 nM	395 nM	> 100000 nM	> 200000 nM	> 100000 nM	IC50 (Cathepsin S [18]): 444 nM; IC50 (Cathepsin B [19]): 2850 nM; selectivity ratio [20]: > 333; selectivity ratio [21]: > 333
COc1cccc2[nH]c(C(=O)N[C@@H](CC(C)C)C(=O)N[C@@H](C[C@@H]3CCCNC3=O)C(=O)COC(=O)C(C)(C)C)cc12				> 10000 nM	5.03	100%							
COc1cccc2[nH]c(C(=O)N[C@@H](CC(C)C)C(=O)N[C@@H](C[C@@H]3CCCNC3=O)C(=O)COC(=O)c3ccccn3)cc12			126 nM	> 10000 nM	0.99								
COc1cccc2[nH]c(C(=O)N[C@@H](CC(C)C)C(=O)N[C@@H](C[C@@H]3CCCNC3=O)C(=O)COC(=O)C(C)(C)C#N)cc12				> 10000 nM	2.4	0%							half-life [6]: < 15 min
COc1cccc2[nH]c(C(=O)N[C@@H](CC(C)C)C(=O)N[C@@H](C[C@@H]3CCCNC3=O)C(=O)COC(=O)c3ccccc3)cc12	41%	16.2%		> 10000 nM	4.2	67%							half-life [6]: 209 min
COc1cccc2[nH]c(C(=O)N[C@@H](CC(C)C)C(=O)N[C@@H](C[C@@H]3CCCNC3=O)C(=O)COC(=O)C3(C)OCCCO3)cc12			12.5 nM	> 10000 nM	2.7								
COc1cccc2[nH]c(C(=O)N[C@@H](CC(C)C)C(=O)N[C@@H](C[C@@H]3CCCNC3=O)C(=O)COC(=O)c3c(C)nn(C)c3C)cc12			71.5 nM	> 10000 nM	2.2								
COc1cccc2[nH]c(C(=O)N[C@@H](CC(C)C)C(=O)N[C@@H](C[C@@H]3CCNC3=O)C(=O)COC(=O)c3c(C(F)(F)F)cc(C)nc3C)cc12							13 nM	> 201000 nM	33 nM	44900 nM	> 200000 nM	> 100000 nM	half-life at 2 µM [9]: > 289 min; half-life at 3 µM [11]: 1.9 min; Papp B→A at 2 h, 2 µM [12]: 24.3 ×10⁻⁶ cm/s; half-life at 1 µM [15]: 1.1 min; logD [17]: 4.57
COc1cccc2[nH]c(C(=O)N[C@@H](CC(C)C)C(=O)N[C@@H](C[C@@H]3CCCNC3=O)C(=O)COC(=O)c3c(C)nc(C)nc3C)cc12					2			> 200000 nM			> 200000 nM		
COc1cccc2[nH]c(C(=O)N[C@@H](CC(C)C)C(=O)N[C@@H](C[C@@H]3CCCNC3=O)C(=O)COC(=O)c3c(C(F)(F)F)cccc3C(F)(F)F)cc12	96.8%	91.3%		160 nM	1.9	100%	29 nM	> 200000 nM	47 nM	94600 nM	> 200000 nM	> 100000 nM	IC50 (Cathepsin S [18]): 116 nM; IC50 (Cathepsin B [19]): 464 nM; selectivity ratio [20]: > 1250; selectivity ratio [21]: > 1250
CC(=O)OCC(=O)[C@H](C[C@@H]1CCNC1=O)NC(=O)[C@H](CC(C)C)NC(=O)OCc1cccc(Cl)c1			1500 nM	21500 nM				> 200000 nM			> 200000 nM		
COc1cccc2[nH]c(C(=O)N[C@@H](CC(C)C)C(=O)N[C@@H](C[C@@H]3CCCNC3=O)C(=O)COC(=O)C(C)(C)C(F)(F)F)cc12				> 5000 nM	3.2	25%	112 nM	> 200000 nM	195 nM	94600 nM	> 200000 nM	> 100000 nM	half-life at 2 µM [9]: 11.6 min; half-life [6]: 67 min; Stability ([11]; mouse, 1.5 h, 3 µM): Unstable; permeability [12]: Impermeable; Stability ([14]; mouse, microsomes, 1 h, 1 µM): Unstable; Stability [15]: Unstable; logD [17]: 4.89
COc1cccc2[nH]c(C(=O)N[C@@H](CC(C)C)C(=O)N[C@@H](C[C@@H]3CCCNC3=O)C(=O)COC(=O)c3c(C)cc(C)nc3C)cc12	98.1%	86.7%	19 nM		1.7	100%	48 nM	> 200000 nM	54 nM	> 100000 nM	> 200000 nM	> 100000 nM	remaining at 24 h [22]: > 80%; half-life at 2 µM [9]: > 289 min; IC50 (Cathepsin S [18]): 51.5 nM; IC50 (Cathepsin B [19]): 201 nM; half-life at 3 µM [11]: 2.7 min; Papp B→A at 2 h, 2 µM [12]: 21.8 ×10⁻⁶ cm/s; half-life at 1 µM [15]: 1.1 min; logD [17]: 4.41
